# Reference: PMC5666694 (Antiviral research, 2017)
# Counter-ions that a name gives are not always drawn.
# Tested on: HIV/EBOV pseudovirion
# Format: cell-based, Ebolavirus Zaire
row,SMILES,Antiviral effect by time of compound addition
1,"Cc1cn([C@H]2C[C@H](N=[N+]=[N-])[C@@H](CO)O2)c(=O)[nH]c1=O [AZT, Azidothymidine]",still effective even when it was introduced at a very late time points (>8 h)
2,"CN1[C@@H]2CC[C@H]1C[C@@H](OC(c1ccccc1)c1ccccc1)C2 [benztropine, Benztropine mesylate]",started to lose its inhibitory effect when it was added at 2 h post entry and beyond
